Experiments:
Stromelysin-1 = Stromelysin-1 (Homo sapiens, UniProt P08254); assay: Inhibitory concentration against human matrix metalloprotease-3 (MMP-3)
Neutrophil collagenase = Neutrophil collagenase (Homo sapiens, UniProt P22894); assay: Inhibitory concentration against human matrix metalloprotease-8 (human neutrophil collagenase, MMP-8)
[1] = Affinity ratio of IC50 of MMP-3 to IC50 of MMP-8

Neutrophil collagenase, sequence (P22894 whole entry): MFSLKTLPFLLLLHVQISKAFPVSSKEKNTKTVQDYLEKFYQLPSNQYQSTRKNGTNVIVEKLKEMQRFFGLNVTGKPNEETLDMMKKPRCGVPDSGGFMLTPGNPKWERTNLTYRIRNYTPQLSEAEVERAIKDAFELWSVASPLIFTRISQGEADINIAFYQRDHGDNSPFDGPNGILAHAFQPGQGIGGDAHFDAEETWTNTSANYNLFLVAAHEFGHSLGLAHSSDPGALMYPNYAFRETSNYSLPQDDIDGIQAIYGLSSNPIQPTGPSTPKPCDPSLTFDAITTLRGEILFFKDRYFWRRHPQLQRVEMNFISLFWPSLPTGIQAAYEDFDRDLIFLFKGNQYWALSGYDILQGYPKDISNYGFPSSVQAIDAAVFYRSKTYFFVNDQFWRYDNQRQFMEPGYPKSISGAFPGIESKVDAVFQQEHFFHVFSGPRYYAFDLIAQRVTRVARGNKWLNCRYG
Stromelysin-1, sequence (P08254 whole entry): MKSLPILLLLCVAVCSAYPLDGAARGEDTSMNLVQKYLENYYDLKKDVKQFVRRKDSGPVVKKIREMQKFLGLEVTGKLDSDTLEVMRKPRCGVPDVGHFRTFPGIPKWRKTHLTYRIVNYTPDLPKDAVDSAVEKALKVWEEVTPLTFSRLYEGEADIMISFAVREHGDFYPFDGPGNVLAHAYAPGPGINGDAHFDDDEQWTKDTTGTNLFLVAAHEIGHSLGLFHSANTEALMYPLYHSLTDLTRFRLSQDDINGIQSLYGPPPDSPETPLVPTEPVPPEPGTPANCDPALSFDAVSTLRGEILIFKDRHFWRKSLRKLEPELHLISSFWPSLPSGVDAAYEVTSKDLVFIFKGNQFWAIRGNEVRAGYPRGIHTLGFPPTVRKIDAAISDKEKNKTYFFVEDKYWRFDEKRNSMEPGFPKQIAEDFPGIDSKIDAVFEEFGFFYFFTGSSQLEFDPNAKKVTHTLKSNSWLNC

| Compound | IC50 (Stromelysin-1; read-out: IC50) | IC50 (Neutrophil collagenase) | log10(IC50 MMP-3/IC50 MMP-8) [1] | IC50 (Stromelysin-1) |
| --- | --- | --- | --- | --- |
| COc1ccc(S(=O)(=O)N2Cc3cc(N)ccc3CC2C(=O)NO)cc1 (stereo not given) | 10 nM |  |  |  |
| COc1ccc(S(=O)(=O)N2Cc3cc(NC(=O)[C@H](C)N)ccc3CC2C(=O)NO)cc1 (stereo not given in full) | 30 nM |  |  |  |
| O=C(NO)C1Cc2ccccc2CN1S(=O)(=O)Cc1ccc(-c2ccccn2)s1 (stereo not given) | 20 nM | 2 nM | 1 |  |
| CC(C)(C)OC(=O)Nc1ccc2c(c1)CN(S(=O)(=O)c1ccc(-c3ccc(F)cc3)cc1)C(C(=O)NO)C2 (stereo not given) | 100 nM | 10 nM | 1 |  |
| COc1ccc(S(=O)(=O)N2Cc3cc(NC(=O)[C@H](C)NC(=O)OC(C)(C)C)ccc3CC2C(=O)NO)cc1 (stereo not given in full) | 20 nM | 2 nM | 1 |  |
| CSc1nccc(-c2ccc(S(=O)(=O)N3Cc4ccccc4CC3C(=O)O)s2)n1 (stereo not given) |  | 1000 nM |  | 10000 nM l-1 |
| COc1ccc(S(=O)(=O)N2Cc3ncn(C)c3C[C@@H]2C(=O)NO)cc1 | 20 nM |  | 0.82 |  |
| O=C(NO)[C@H]1Cc2c([nH]c3ccccc23)CN1S(=O)(=O)c1ccc(N2CCOCC2)cc1 |  |  | 0.63 |  |
| O=C(NO)C1Cc2ccccc2CN1S(=O)(=O)c1ccc(-c2ccon2)s1 (stereo not given) | 50 nM | 8 nM | 0.8 |  |
| COc1ccc(S(=O)(=O)N2Cc3cc([N+](=O)[O-])ccc3CC2C(=O)NO)cc1 (stereo not given) |  |  | 1 |  |
| COc1ccc(S(=O)(=O)N2Cc3[nH]c4ccccc4c3C[C@@H]2C(=O)NO)cc1 |  |  | 0.82 |  |
| COc1ccc(S(=O)(=O)N2Cc3cc(NC(=O)CCC(=O)O)ccc3CC2C(=O)NO)cc1 (stereo not given) | 20 nM | 40 nM | -0.3 |  |
| COc1ccc(S(=O)(=O)N2Cc3cc(NC(=O)[C@H](CC(=O)OC(C)(C)C)NC(=O)Cc4ccccc4)ccc3CC2C(=O)NO)cc1 (stereo not given in full) | 40 nM | 10 nM | 0.6 |  |
| COc1ccc(S(=O)(=O)Oc2ccc3c(c2)CN(S(=O)(=O)c2ccc(OC)cc2)C(C(=O)NO)C3)cc1 (stereo not given) | 30 nM | 8 nM | 0.57 |  |
| COc1ccc(S(=O)(=O)N2Cc3[nH]cnc3C[C@@H]2C(=O)NO)cc1 |  |  | 0.7 |  |
| O=C(NO)C1Cc2ccccc2CN1S(=O)(=O)c1cc(Br)c(Br)s1 (stereo not given) |  | 500 nM | 1.3 | 10000 nM l-1 |
| O=C(O)C1Cc2ccccc2CN1S(=O)(=O)c1ccc(-c2ccon2)s1 (stereo not given) | 2000 nM | 600 nM |  |  |
| O=C(O)C1Cc2ccccc2CN1S(=O)(=O)c1ccc(-n2nccn2)cc1 (stereo not given) | 600 nM | 90 nM |  |  |
| O=C(O)C1Cc2ccccc2CN1S(=O)(=O)c1ccc(-c2ccccn2)s1 (stereo not given) | 2000 nM | 90 nM |  |  |
| O=C(O)[C@H]1Cc2c([nH]c3ccccc23)CN1S(=O)(=O)c1ccc(Oc2ccccc2)cc1 |  |  | 1.3 |  |
| CSc1nccc(-c2ccc(S(=O)(=O)N3Cc4ccccc4CC3C(=O)NO)s2)n1 (stereo not given) | 2000 nM | 20 nM | 2 |  |

Second part, the compound after the results:

| IC50 (Stromelysin-1; read-out: IC50) | IC50 (Neutrophil collagenase) | log10(IC50 MMP-3/IC50 MMP-8) [1] | IC50 (Stromelysin-1) | Compound |
| --- | --- | --- | --- | --- |
| 3000 nM | 300 nM |  |  | O=C(c1ccccc1)c1ccc(S(=O)(=O)N2Cc3ccccc3CC2C(=O)O)cc1 (stereo not given) |
| 300 nM | 10 nM |  |  | O=C(O)C1Cc2ccccc2CN1S(=O)(=O)c1ccc(-c2ccc(C(F)(F)F)cc2)cc1 (stereo not given) |
| 20 nM | 2 nM | 1 |  | Nc1ccc2c(c1)CN(S(=O)(=O)c1ccc(-c3ccc(F)cc3)cc1)C(C(=O)NO)C2 (stereo not given) |
| 6000 nM | 800 nM | 0.88 |  | O=C(NCc1csc(S(=O)(=O)N2Cc3ccccc3CC2C(=O)NO)c1)c1ccccc1 (stereo not given) |
| 800 nM | 80 nM |  |  | O=C(O)C1Cc2ccccc2CN1S(=O)(=O)c1ccc(-c2nc3ccccc3o2)cc1 (stereo not given) |
| 30 nM | 2 nM | 1.18 |  | CCCCOc1ccc(S(=O)(=O)N2Cc3ccccc3CC2C(=O)NO)cc1 (stereo not given) |
| 500 nM | 20 nM |  |  | O=C(O)C1Cc2ccccc2CN1S(=O)(=O)c1ccc(Oc2ccc(Cl)cc2)cc1 (stereo not given) |
| 200 nM | 20 nM |  |  | O=C(O)C1Cc2ccc(O)cc2CN1S(=O)(=O)c1ccc(-c2ccc(Cl)cc2)cc1 (stereo not given) |
|  | 3000 nM |  | 10000 nM l-1 | O=C(NO)C1Cc2ccccc2CN1S(=O)(=O)Cc1ccccc1 (stereo not given) |
| 2000 nM | 200 nM |  |  | O=C(O)C1Cc2ccccc2CN1S(=O)(=O)c1ccc(Sc2ccccc2)cc1 (stereo not given) |
| 30 nM | 2 nM | 1.18 |  | CN(C)c1ccc(Oc2ccc(S(=O)(=O)N3Cc4ccccc4CC3C(=O)NO)cc2)cc1 (stereo not given) |
| 200 nM | 9 nM |  |  | O=C(O)C1Cc2ccccc2CN1S(=O)(=O)c1ccc(Oc2ccccc2)cc1 (stereo not given) |
| 20 nM | 2 nM | 1 |  | CN(C)c1ccc(-c2ccc(S(=O)(=O)N3Cc4ccccc4CC3C(=O)NO)cc2)cc1 (stereo not given) |
| 30 nM | 3 nM | 1 |  | O=C(c1ccccc1)c1ccc(S(=O)(=O)N2Cc3ccccc3CC2C(=O)NO)cc1 (stereo not given) |
| 7000 nM |  | 0.85 |  | COc1ccc(S(=O)(=O)N2Cc3ccccc3C[C@H]2C(=O)NO)cc1 |
| 5000 nM | 600 nM |  |  | O=C(O)C1Cc2ccccc2CN1S(=O)(=O)c1ccc(Br)cc1 (stereo not given) |

| IC50 (Stromelysin-1; read-out: IC50) | IC50 (Neutrophil collagenase) | log10(IC50 MMP-3/IC50 MMP-8) [1] | IC50 (Stromelysin-1) | Compound |
| --- | --- | --- | --- | --- |
| 20 nM | 2 nM | 1 |  | O=C(NO)C1Cc2ccccc2CN1S(=O)(=O)c1ccc(OCc2ccc(F)cc2)cc1 (stereo not given) |
|  | 200 nM |  | 10000 nM l-1 | O=C(Nc1cccc(S(=O)(=O)N2Cc3ccccc3CC2C(=O)NO)c1)c1ccccc1O (stereo not given) |
| 300 nM | 100 nM | 0.48 |  | O=C(NO)C1Cc2ccccc2CN1S(=O)(=O)c1ccc(N2CCOCC2)cc1 (stereo not given) |
| 300 nM | 40 nM |  |  | CNC(=O)c1ccc(Oc2ccc(S(=O)(=O)N3Cc4ccccc4CC3C(=O)O)cc2)cc1 (stereo not given) |
| 100 nM | 10 nM | 1 |  | O=C(NO)C1Cc2ccccc2CN1S(=O)(=O)c1ccc2oc3ccccc3c2c1 (stereo not given) |
|  |  | 0.85 |  | CC(=O)Nc1ccc(S(=O)(=O)N2Cc3ccccc3CC2C(=O)NO)cc1 (stereo not given) |
| 500 nM | 50 nM | 1 |  | O=C(NO)C1Cc2ccccc2CN1S(=O)(=O)c1ccc(C(F)(F)F)cc1 (stereo not given) |
| 20 nM |  | 0.7 |  | COc1ccc(S(=O)(=O)N2Cc3ccccc3C[C@@H]2C(=O)NO)cc1 |
|  |  | 1.22 |  | CCOC(=O)Nc1ccc(S(=O)(=O)N2Cc3ccccc3CC2C(=O)NO)cc1 (stereo not given) |
| 700 nM | 60 nM |  |  | O=C(O)C1Cc2ccccc2CN1S(=O)(=O)c1ccc(/C=C/c2ccccc2)cc1 (stereo not given) |
| 500 nM | 40 nM | 1.1 |  | O=C(NO)C1Cc2ccccc2CN1S(=O)(=O)c1ccc2[nH]c(-c3ccccc3)nc2c1 (stereo not given) |
| 50 nM | 20 nM |  |  | O=C(O)C1Cc2ccccc2CN1S(=O)(=O)CCc1ccc(-c2ccccc2)cc1 (stereo not given) |
| 1000 nM | 10 nM |  |  | N#Cc1ccc(Oc2ccc(S(=O)(=O)N3Cc4ccccc4CC3C(=O)O)cc2)cc1 (stereo not given) |
| 400 nM | 800 nM |  |  | O=C(Nc1ccc(S(=O)(=O)N2Cc3ccccc3CC2C(=O)NO)cc1)OCc1ccccc1 (stereo not given) |
|  | 2 nM | 1 |  | O=C(NO)C1Cc2ccccc2CN1S(=O)(=O)c1ccc(-c2ccccc2)cc1 (stereo not given) |

— ChEMBL document CHEMBL1132460, “Affinity and selectivity of matrix metalloproteinase inhibitors: a chemometrical study from the perspective of ligands and proteins” (J Med Chem, 1999)
